Experimental data reported in patent publication US9170264B2, “Methods of monitoring for adherence to aripiprazole therapy” (Ameritox, Ltd., priority 2013, dated 2015).
“And” between values parts separate entries of the source, which are not always exact repeats. Equal entries are not always repeated. Blank lines part the entries; values can stand above or below the compound they belong to.

Assays:
[1] = Urine testing for compliance over 5 days, patients prescribed 5 mg/day Abilify (Example 7); format: in vivo, human; design: Aripiprazole (urine test result) / Dehydroaripiprazole (urine test result): unit not given here; details: for Aripiprazole (urine test result) / Dehydroaripiprazole (urine test result): human urine, patients prescribed 5 mg/day Abilify
Protocol: (§1) The concentration of any analyte described in the present disclosure may be determined (e.g., measured) by any suitable quantification method. In some embodiments, the concentration of an analyte (e.g., aripiprazole, dehydroaripiprazole, and/or OPC3373) is measured by tandem liquid chromatography-mass spectrometry-mass spectrometry (“LC/MSMS”). In some embodiments, the concentration of an analyte (e.g., aripiprazole, dehydroaripiprazole, and/or OPC3373) is measured by tandem liquid chromatography-High Resolution mass spectrometry (Time of Flight (TOF)) (“LC/MS(TOF)”). In some embodiments, the concentration of an analyte (e.g., aripiprazole, dehydroaripiprazole, and/or OPC3373) is measured by direct injection mass spectrometry-mass spectrometry ([…]) e.g., such systems as RapidFire™ (Agilent) or Laser Diode Thermal Desorption (“LDTD”) (Phytronix) to introduce samples into the mass spectrometer; either triple quadrupole (i.e., MSMS) or exact mass (i.e., Time of Flight, Orbitrap, etc.) instruments
The urine of 25 patients who were prescribed 5 mg of Abilify® (aripiprazole) was tested for compliance over 5 days (Table 11). […] Without OPC3373, only 47% were determined to be positive with patients just being below the reporting cutoffs for both aripiprazole and dehydroaripiprazole. Thus, use of OPC3373 as a urine biomarker at this lower dose adds a great deal of value to compliance monitoring for Abilify®.

[2] = Urine testing for compliance over 5 days, patients prescribed 2 mg/day Abilify (Example 8); format: in vivo, human; design: Urine concentration, individual subject: unit not given here
Protocol: as §1
The urine of 15 patients who were prescribed 2 mg of Abilify® (aripiprazole) was tested for compliance over 5 days (Table 14). […] Without OPC3373, only 24% were determined to be positive with patients just being below the reporting cutoffs for both aripiprazole and dehydroaripiprazole. Thus, use of OPC3373 as a urine biomarker at this lower dose makes compliance monitoring for Abilify® possible. […] However, OPC3373 in subject M confirmed the subject's adherence to aripirazole therapy despite the low observed creatinine level.

[3] = Urine testing of aripiprazole positive patients in a controlled study, LC/MSMS (Example 2); format: in vivo, human; details: 5 mg q day, individual samples, LLOQ aripiprazole 5, dehydroaripiprazole 5, OPC3373 25 ng/mL
Protocol: as §1
An additional set of aripiprazole positive patients was monitored for levels of aripiprazole, dehyrdroaripiprazole, and OPC3373 in their urine.
Dehydroaripiprazole: 5 ng/mL
These analyses were completed using LC/MSMS.

[4] = cited from earlier work
[5] = Urine testing for compliance over 5 days, patients prescribed 15 mg/day Abilify (Example 5); format: in vivo, human; design: urine concentration: unit not given here; details: for urine concentration, Avg / urine concentration, Max / urine concentration, Min: n 69 samples
Protocol: as §1
The urine of 23 patients who were prescribed 15 mg of Abilify® (aripiprazole) was tested for compliance over 5 days (Table 7). […] Without OPC3373, only 78% were determined to be positive with patients just being below the reporting cutoffs for both aripiprazole and dehydroaripiprazole. […] Thus, use of OPC3373 as a urine biomarker at this dose adds value to compliance monitoring for Abilify®.

[6] = Levels of OPC3373, aripiprazole and dehydroaripiprazole in urine of humans taking chronic doses of aripiprazole (Example 1); format: in vivo, human; details: for Levels in Human Urine: individual specimens, chronic doses of aripiprazole, LOQ OPC3373 100 ng/mL, dehydroaripiprazole 5 ng/mL, aripiprazole 5 ng/mL
Protocol: as §1
The appearance of OPC3373 (4-[(2-Oxo-1,2,3,4-tetrahydro-7-quinolinyl)oxy]butanoic acid, BMS-337047) as the major aripiprazole metabolite in the urine can be used to help monitor patient adherence to aripiprazole therapy. While analysis of both aripiprazole and the plasma metabolite, dehydroaripiprazole, can be used to monitor patient adherence, the relatively low levels of these molecules in the urine frequently results in “false negatives” in patients known to be taking aripiprazole.

[7] = Urine testing for compliance over 5 days, patients prescribed 30 mg/day Abilify (Example 3); format: in vivo, human; details: for urine concentration: 30 mg/day Abilify, individual subjects
Protocol: as §1
The urine of 5 patients who were prescribed 30 mg of Abilify® (aripiprazole) was tested for compliance over 5 days (Table 3). […] Without OPC3373, only 93% were determined to be positive with one patient either having stopped taking their medicine between day 4 and 5 or just being below the reporting cutoffs for both aripiprazole and dehydroaripiprazole. Thus, use of OPC3373 as a urine biomarker even at this relatively high dose adds value to compliance monitoring for Abilify®.

[8] = Urine testing for compliance over 5 days, patients prescribed 10 mg/day Abilify (Example 6); format: in vivo, human; details: n 111 samples
Protocol: as §1
The urine of 37 patients who were prescribed 10 mg of Abilify® (aripiprazole) was tested for compliance over 5 days (Table 9). […] Without OPC3373, only 61% were determined to be positive with patients just being below the reporting cutoffs for both aripiprazole and dehydroaripiprazole. Thus, use of OPC3373 as a urine biomarker at this dose adds value to compliance monitoring for Abilify®.

[9] = Urine testing for compliance over 5 days, patients prescribed 20 mg/day Abilify (Example 4); format: in vivo, human; details: n 66 samples
Protocol: as §1
The urine of 22 patients who were prescribed 20 mg of Ability (e.g., aripiprazole) was tested for compliance over 5 days (Table 5). […] Without OPC3373, only 85% were determined to be positive with patients just being below the reporting cutoffs for both aripiprazole and dehydroaripiprazole. Thus, use of OPC3373 as a urine biomarker even at this relatively high dose adds value to compliance monitoring for Abilify®.

[10] = Day 1, subjects A-O (one value per subject)
[11] = Day 4, subjects A-O (one value per subject)
[12] = Day 5, subjects A-O (one value per subject)

Urine concentration, individual subject [2, 10]: 9.0 and 0 (6×) and 7.9
Urine concentration, individual subject [2, 11]: 0
Urine concentration, individual subject [2, 12]: 10.5 and 0 (4×) and 30.9 and 6.1
urine concentration, Avg [5]: 15.29
urine concentration, Max [5]: 76.70
urine concentration, Min [5]: 0.00
Range of levels in Human Urine ([6]; over 22 specimens, * below LOQ): 5 to 100 ng/mL
SMILES: O=C1CCc2ccc(OCCCCN3CCN(c4cccc(Cl)c4Cl)CC3)cc2N1 [Aripiprazole]
Aripiprazole (urine test result) ([1]; Day 1): 10.1 and 0 (13×) and 9 and 7.5 and 5.0 and 9.7 and 8.5 and 8.8 and 8.4 and 13.1 and 6.4 and 38.4 and 5.4
Aripiprazole (urine test result) ([1]; Day 4): 21.5 and 11.3 and 6.6 (2×) and 0.0 (2×) and 5.2 and 0 (9×) and 32.4 and 13.1 and 15.6 and 6.5 and 10.3 and 7.5 and 5.5 and 9.5 and 11.8
Aripiprazole (urine test result) ([1]; Day 5): 10.2 and 5.1 and 7.3 and 0 (15×) and 14.9 and 0.0 and 5.3 and 10.1 and 12.7 and 9.7 and 31.6
Abilify Urine Results [3]: 0 ng/mL and 11.1 ng/mL and 22.3 ng/mL and 9.4 ng/mL and 19.4 ng/mL and 11.6 ng/mL
oral dose excreted as unchanged aripiprazole in faeces ([4]; faeces, humans): 8-18%
time of dosing until steady state serum concentrations are achieved ([4]; in vivo): two
share of a dose represented in plasma [4]: 57%
oral dose excreted as unchanged aripiprazole in urine ([4]; urine, humans): Less than 1%
urine concentration ([5]; Day 1, individual subjects): 52.2 and 0 (6×) and 5.3 and 15.1 and 31.2 and 15.4 and 17.9 and 20.0 and 31.5 and 9.8 and 8.9 and 17.5 and 15.0 and 10.1 and 5.4 and 19.4 and 27.6 and 14.6
urine concentration ([5]; Day 4, individual subjects): 31.7 and 19.5 and 39.3 and 10.2 and 8.9 and 12.3 and 0 (8×) and 40 and 26.7 and 45.3 and 14.5 and 6.2 and 5.7 and 7.9 and 62.3 and 19.0
urine concentration ([5]; Day 5, individual subjects): 22.8 and 0 (5×) and 16.4 and 9.3 and 6.9 and 32.1 and 37.1 and 16.7 and 7.4 and 57.3 and 12.3 and 14.2 (2×) and 7.5 and 17.7 and 25.3 and 5.1 and 76.7 and 9.6
Levels in Human Urine [6]: 9.5 ng/mL and <5.0 ng/mL (9×) and 32.4 ng/mL and 9.7 ng/mL and 53.3 ng/mL and 84.9 ng/mL and 38.7 ng/mL and 10 ng/mL and 0.0 ng/mL (2×) and 17.4 ng/mL and 17.9 ng/mL and 5.0 ng/mL and 39.5 ng/mL

Urine drug/metabolite concentration, Extremes ([1]; 5 mg/day Abilify, Day 1): 0-6.5
Urine drug/metabolite concentration, Mean +/- SD ([1]; 5 mg/day Abilify, Day 1): 2.3 +/− 3.2
Urine drug/metabolite concentration, Median ([1]; 5 mg/day Abilify, Day 1): 0
Urine drug/metabolite concentration, Extremes ([1]; 5 mg/day Abilify, Day 4): 0-6.1
Urine drug/metabolite concentration, Median ([1]; 5 mg/day Abilify, Day 4): 0
Urine drug/metabolite concentration, Extremes ([1]; 5 mg/day Abilify, Day 5): 0-8.2
Urine drug/metabolite concentration, Median ([1]; 5 mg/day Abilify, Day 5): 0
urine concentration, Avg ([1]; 5 mg/day Abilify, n 75 samples): 1.96
urine concentration, Max ([1]; 5 mg/day Abilify, n 75 samples): 17.1
urine concentration, Min ([1]; 5 mg/day Abilify, n 75 samples): 0
Urine drug/metabolite concentration, Extremes ([2]; Day 1): 0-7.4
Urine drug/metabolite concentration, Mean +/- SD ([2]; Day 1): 0.5 +/− 1.9
Urine drug/metabolite concentration, Median ([2]; Day 1): 0
Urine concentration, individual subject [2, 10]: 0
Urine drug/metabolite concentration, Extremes ([2]; Day 4): 0-0
Urine drug/metabolite concentration, Mean +/- SD ([2]; Day 4): 0 +/− 0
Urine drug/metabolite concentration, Median ([2]; Day 4): 0
Urine concentration, individual subject [2, 11]: 0
Urine drug/metabolite concentration, Extremes ([2]; Day 5): 0-0
Urine drug/metabolite concentration, Mean +/- SD ([2]; Day 5): 0 +/− 0
Urine drug/metabolite concentration, Median ([2]; Day 5): 0
Urine concentration, individual subject [2, 12]: 0 (13×) and 10.7 and 0.0
urine concentration, Avg ([2]; n 45 samples): 0.24
urine concentration, Max ([2]; n 45 samples): 10.7
urine concentration, Min ([2]; n 45 samples): 0
urine concentration ([7]; Day 1): 11.5 and 29.2 and 6.8 and 56.9 and 14.1
urine concentration ([7]; Day 4): 14.1 and 84.8 and 11.0 and 36.3 and 16.6
urine concentration ([7]; Day 5): 0 and 17.0 and 8.9 and 89.7 and 28.1
urine concentration, Avg ([7]; 30 mg/day, n 15 samples): 28.33 ng/mL
urine concentration, Max ([7]; 30 mg/day, n 15 samples): 89.70 ng/mL
urine concentration, Min ([7]; 30 mg/day, n 15 samples): 0.00 ng/mL
urine concentration, Max [8]: 64.8
urine concentration, Min [8]: 0
urine concentration, avg [8]: 6.27
urine concentration, Avg [9]: 12.30
urine concentration, Max [9]: 91.40
urine concentration, Min [9]: 0.00
urine concentration, Avg [5]: 8.76
urine concentration, Max [5]: 33.30
urine concentration, Min [5]: 0.00
Range of levels in Human Urine ([6]; over 22 specimens, * below LOQ): 5 to 75 ng/mL
SMILES: O=c1ccc2ccc(OCCCCN3CCN(c4cccc(Cl)c4Cl)CC3)cc2[nH]1 [Dehydroaripiprazole, dehydroaripiprazole]
Dehydroaripiprazole (urine test result) ([1]; Day 1): 6.6 and 0 (20×) and 5.1 and 7.4 and 5.3 and 8.7
Dehydroaripiprazole (urine test result) ([1]; Day 4): 10.2 and 0 (19×) and 17.1 and 8.0 and 7.5 and 7.4 and 8.4
Dehydroaripiprazole (urine test result) ([1]; Day 5): 5.7 and 0 (19×) and 5.2 and 5.5 and 15.8 and 8.2 and 15.1
Abilify Urine Results [3]: 0 ng/mL (3×) and 6.5 ng/mL and 5.2 ng/mL and 6.4 ng/mL
share of a dose represented in plasma [4]: 20%
urine concentration ([5]; Day 1, individual subjects): 27.9 and 0 (6×) and 21 and 10.1 and 5.9 and 11.4 (2×) and 12.8 and 25.4 and 12.3 and 6.7 and 6.1 and 5.5 and 9.6 and 5.2 and 5.1 and 14.6 and 6.6
urine concentration ([5]; Day 4, individual subjects): 16.8 and 7.4 and 20.7 and 7.5 and 0 (11×) and 24 and 21.0 and 10.1 and 25.8 and 8.6 and 8.1 and 14.3 and 8.0
urine concentration ([5]; Day 5, individual subjects): 12.8 and 0 (9×) and 5.2 and 17.0 and 24.1 (2×) and 23.1 and 23.9 and 33.3 and 12.3 and 6.5 and 11.2 and 16.6 and 0.0 and 24.9
Levels in Human Urine [6]: <5.0 ng/mL (7×) and 5.1 ng/mL (2×) and 14.1 ng/mL and 0.0 ng/mL (5×) and 17.8 ng/mL and 20.1 ng/mL and 5.9 ng/mL and 0 ng/mL and 15.8 ng/mL and 8.8 ng/mL and 56.1 ng/mL

Range of levels in Human Urine ([6]; human, in vivo): 10*-1500 ng/mL
SMILES: O=C(O)CCCOc1ccc2c(c1)NC(=O)CC2 [OPC3373, 4-[(2-Oxo-1,2,3,4-tetrahydro-7-quinolinyl)oxy]butanoic acid]
share of a dose represented in plasma [4]: 2%
recovered from a dose as urinary metabolite ([4]; urine, reported by Baselt): 19%
